# Reference: publication PMC10222328 (Pharmaceuticals, 2023)
# How the values were obtained:
# [1] = molecular target: T1, 5-LOX (Homo sapiens, UniProt P09917); test: Fluorometric 5-LOX inhibitor screening kit; type: biochemical; details: mean ± standard error of two measurements; for inhibition at 10 µM: read-out: 5-LOX Percent of Inhibition
# T1 construct: purchased Abcam, UK
# T1 sequence (P09917 1-674): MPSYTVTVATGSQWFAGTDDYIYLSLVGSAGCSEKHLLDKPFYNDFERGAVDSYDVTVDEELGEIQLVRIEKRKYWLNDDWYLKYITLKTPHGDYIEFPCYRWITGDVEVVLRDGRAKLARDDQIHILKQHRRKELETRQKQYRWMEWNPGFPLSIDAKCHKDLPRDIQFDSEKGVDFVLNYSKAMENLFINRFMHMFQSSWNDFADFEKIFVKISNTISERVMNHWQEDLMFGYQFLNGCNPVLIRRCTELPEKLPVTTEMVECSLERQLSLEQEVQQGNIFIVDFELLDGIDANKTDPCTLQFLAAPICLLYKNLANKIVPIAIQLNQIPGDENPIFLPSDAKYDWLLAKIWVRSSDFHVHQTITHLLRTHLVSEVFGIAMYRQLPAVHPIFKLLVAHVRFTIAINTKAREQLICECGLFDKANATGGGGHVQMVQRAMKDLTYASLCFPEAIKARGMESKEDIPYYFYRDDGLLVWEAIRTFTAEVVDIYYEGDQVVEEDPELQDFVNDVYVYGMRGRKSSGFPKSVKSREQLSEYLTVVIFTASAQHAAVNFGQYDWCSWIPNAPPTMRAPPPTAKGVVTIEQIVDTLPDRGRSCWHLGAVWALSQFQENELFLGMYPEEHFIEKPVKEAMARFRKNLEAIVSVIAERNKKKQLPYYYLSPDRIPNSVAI
# Procedure: (§1) COX-2 and 5-LOX inhibitory activities were tested using fluorometric COX-2 and 5-LOX inhibitor screening kits (Abcam, UK). These assays are based on the fluorometric detection of Prostaglandin G2 (a product generated by the COX enzyme) or on the fluorometric detection of intermediate generated by the 5-LOX enzyme. The experiments were conducted according to the manufacturers’ instructions.
# (§2) For the determination of COX-2 inhibitory activity, tested compounds were dissolved in DMSO (5 mM stock solutions) and then diluted with the same solvent to obtain test solutions. Test solutions were further diluted 5X with COX assay buffer (2 µL of test solution and 8 µL COX assay buffer). […] Solvent control (SC) was prepared by adding 2 µL DMSO and 8 µL COX assay buffer, while sample (S) and enzyme control (EC) were prepared by adding 10 µL of diluted test solution and COX assay buffer, respectively, into assigned wells. For the determination of 5-LOX inhibitory activity, tested compounds were also dissolved in DMSO to prepare stock solutions with the same concentration (5mM), which were then diluted with the same solvent to obtain test solutions. Subsequently, test solutions were added to corresponding wells (2 µL).
# [2] = molecular target: T2, COX-2 (Homo sapiens, UniProt P35354); test: Fluorometric COX-2 inhibitor screening kit; type: biochemical; details: at 10 µM; mean ± standard error of two measurements; read-out: COX-2 Percent of Inhibition
# T2 construct: purchased Abcam, UK
# T2 sequence (P35354 18-604): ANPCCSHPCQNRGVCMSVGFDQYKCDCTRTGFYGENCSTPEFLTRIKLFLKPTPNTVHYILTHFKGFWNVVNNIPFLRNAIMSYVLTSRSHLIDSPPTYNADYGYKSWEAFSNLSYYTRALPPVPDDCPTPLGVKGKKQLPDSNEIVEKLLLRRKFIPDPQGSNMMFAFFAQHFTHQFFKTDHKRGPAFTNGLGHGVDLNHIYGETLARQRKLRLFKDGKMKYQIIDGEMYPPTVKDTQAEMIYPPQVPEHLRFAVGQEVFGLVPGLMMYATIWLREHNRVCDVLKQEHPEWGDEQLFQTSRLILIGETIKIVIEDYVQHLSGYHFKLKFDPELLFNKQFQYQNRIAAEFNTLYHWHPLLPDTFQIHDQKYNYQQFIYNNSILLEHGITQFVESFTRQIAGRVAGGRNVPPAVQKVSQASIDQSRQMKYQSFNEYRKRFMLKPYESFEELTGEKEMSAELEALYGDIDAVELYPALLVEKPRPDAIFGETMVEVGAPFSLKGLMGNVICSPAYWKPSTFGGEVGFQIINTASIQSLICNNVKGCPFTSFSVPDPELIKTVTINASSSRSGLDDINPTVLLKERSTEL
# Procedure: as §1, §2
# [3] = system: carrageenan-induced rat paw edema; test: Carrageenan-induced rat paw edema model; type: in vivo, Wistar albino rats; details: for Rat paw thickness: mean ± SD; for inhibition in vivo at 2.5 mg/kg / inhibition in vivo at 5 mg/kg / inhibition in vivo at 10 mg/kg: Rattus norvegicus, po
# Procedure: In vivo assessment of anti-inflammatory activity of compounds 1–7 was conducted in the carrageenan-induced rat paw edema model. Inflammation in all rats was induced by an intraplantar injection of […] of 0.5% carrageenan saline in the left hind paw. Two hundred male Wistar albino rats (180–210 g) were divided into seven experimental (n = 168 rats, 8 rats per subgroup) and two control groups (n = 32 rats, 8 rats per subgroup).
# Experimental groups involved rats that received compounds 1–7, and they were divided into three subgroups: rats received compounds 1–7 per os in three doses (2.5 mg/kg, 5 mg/kg, and 10 mg/kg) dissolved in 1% DMSO for 60 min before inducing inflammation.
# In order to quantify the anti-inflammatory effect, the thickness of the left paw tissue of each rat was measured at the following time intervals: immediately before inducing inflammation (moment 0) and 1, 2, 3, and 4 h (moments 1, 2, 3, and 4) after inflammation. Tissue thickness was measured in the middle of the rat paw using a digital vernier caliper (Aerospace, Beijing, China).
# [4] = 2.5 mg/kg per os, 1 h after carrageenan
# [5] = 2.5 mg/kg per os, 2 h after carrageenan
# [6] = 2.5 mg/kg per os, 3 h after carrageenan
# [7] = 2.5 mg/kg per os, 4 h after carrageenan
# [8] = 5.0 mg/kg per os, 1 h after carrageenan
# [9] = 5.0 mg/kg per os, 2 h after carrageenan
# [10] = 5.0 mg/kg per os, 3 h after carrageenan
# [11] = 5.0 mg/kg per os, 4 h after carrageenan
# [12] = 10.0 mg/kg per os, 1 h after carrageenan
# [13] = 10.0 mg/kg per os, 2 h after carrageenan
# [14] = 10.0 mg/kg per os, 4 h after carrageenan
# [15] = 1 h, 2.5 mg/kg per os, 1 h after carrageenan
# [16] = 1 h, 5.0 mg/kg per os, 1 h after carrageenan
# [17] = 1 h, 10.0 mg/kg per os, 1 h after carrageenan
# [18] = 2 h, 2.5 mg/kg per os, 2 h after carrageenan
# [19] = 2 h, 5.0 mg/kg per os, 2 h after carrageenan
# [20] = 2 h, 10.0 mg/kg per os, 2 h after carrageenan
# [21] = 3 h, 2.5 mg/kg per os, 3 h after carrageenan
# [22] = 3 h, 5.0 mg/kg per os, 3 h after carrageenan
# [23] = 3 h, 10.0 mg/kg per os, 3 h after carrageenan
# [24] = 4 h, 2.5 mg/kg per os, 4 h after carrageenan
# [25] = 4 h, 5.0 mg/kg per os, 4 h after carrageenan
# [26] = 4 h, 10.0 mg/kg per os, 4 h after carrageenan
# [27] = 10.0 mg/kg per os, 3 h after carrageenan
SMILES,inhibition at 10 µM [1] [%],inhibition at 10 µM [2] [%],"Rat paw thickness [3, 4] [mm]","Rat paw thickness [3, 5] [mm]","Rat paw thickness [3, 6] [mm]","Rat paw thickness [3, 7] [mm]","Rat paw thickness [3, 8] [mm]","Rat paw thickness [3, 9] [mm]","Rat paw thickness [3, 10] [mm]","Rat paw thickness [3, 11] [mm]","Rat paw thickness [3, 12] [mm]","Rat paw thickness [3, 13] [mm]","Rat paw thickness [3, 14] [mm]","inhibition in vivo at 2.5 mg/kg [3, 15] [%]","inhibition in vivo at 5 mg/kg [3, 16] [%]","inhibition in vivo at 10 mg/kg [3, 17] [%]","inhibition in vivo at 2.5 mg/kg [3, 18] [%]","inhibition in vivo at 5 mg/kg [3, 19] [%]","inhibition in vivo at 10 mg/kg [3, 20] [%]","inhibition in vivo at 2.5 mg/kg [3, 21] [%]",other results
"COc1ccc2cc([C@H](C)C(=O)NC(=S)Nc3ccc(C(C)=O)cc3)ccc2c1 [Compound 5, (S)-N-((4-acetylphenyl)carbamothioyl)-2-(6-methoxynaphthalen-2-yl)propanamide]",46.2 ± 4.87,19.6 ± 4.55,5.73 ± 0.12,5.37 ± 0.25,5.20 ± 0.20,4.57 ± 0.15,5.05 ± 0.07,4.85 ± 0.07,4.40 ± 0.14,3.95 ± 0.07,5.5 ± 0.71,5.35 ± 0.64,4.75 ± 0.49,10.7,19.6,38.1,17.2,19.5,37.9,10.5,"IC50 [1]: 16.7 ± 1.79 µM; inhibition in vivo at 5 mg/kg [3, 22]: 28.8%; inhibition in vivo at 10 mg/kg [3, 23]: 39.7%; inhibition in vivo at 2.5 mg/kg [3, 24]: 31%; inhibition in vivo at 5 mg/kg [3, 25]: 41.4%; inhibition in vivo at 10 mg/kg [3, 26]: 47 to 54%"
"CCOC(=O)C(Cc1ccccc1)NC(=S)NC(=O)C(C)c1ccc2cc(OC)ccc2c1 [Compound 6, Ethyl(((S)-2-(6-methoxynaphthalen-2-yl)propanoyl)carbamothioyl)-L-phenylalaninate]",23.6 ± 2.14,24 ± 5.36,6.17 ± 0.31,5.87 ± 0.23,5.37 ± 0.55,4.93 ± 0.21,6.47 ± 0.57,6.17 ± 0.06,5.77 ± 0.06,5.27 ± 0.21,6.20 ± 0.20,6.17 ± 0.23,5.03 ± 0.76,11.8,17.5,21.6,15.7,21.8,14.2,26.9,"Rat paw thickness [3, 27]: 5.27 ± 0.72 mm; inhibition in vivo at 5 mg/kg [3, 22]: 28.8%; inhibition in vivo at 10 mg/kg [3, 23]: 47.1%; inhibition in vivo at 2.5 mg/kg [3, 24]: 37.9%; inhibition in vivo at 5 mg/kg [3, 25]: 44.7%; inhibition in vivo at 10 mg/kg [3, 26]: 49.4%"
"COC(=O)[C@H](Cc1cn(C)c2ccccc12)NC(=S)NC(=O)[C@@H](C)c1ccc2cc(OC)ccc2c1 [Compound 7, Methyl-N^α-(((S)-2-(6-methoxynaphthalen-2-yl)propanoyl)carbamothioyl)-1-methyltryptophanate]",20.7 ± 4.19,24.2 ± 5.77,7.03 ± 0.15,6.47 ± 0.21,6.10 ± 0.20,5.87 ± 0.21,7.10 ± 0.17,6.80 ± 0.20,6.43 ± 0.32,6.03 ± 0.61,6.87 ± 0.25,6.50 ± 0.36,5.47 ± 0.38,21.6,24.4,14.8,38.7,29.5,21.8,47,"Rat paw thickness [3, 27]: 6.03 ± 0.21 mm; inhibition in vivo at 5 mg/kg [3, 22]: 36.1%; inhibition in vivo at 10 mg/kg [3, 23]: 32.4%; inhibition in vivo at 2.5 mg/kg [3, 24]: 49.4%; inhibition in vivo at 5 mg/kg [3, 25]: 47.1%; inhibition in vivo at 10 mg/kg [3, 26]: 54.1%"
